Results from patent US20220089593A1, “PDE9 INHIBITOR AND USE THEREOF” (TRANSTHERA SCIENCES (NANJING), INC., priority 2019, published 2022).

Columns and labels:
PDE9A2 enzyme = molecular target: T1, PDE9A2 enzyme (Homo sapiens, UniProt O76083); experiment: PDE9 enzymatic evaluation; type: biochemical; settings: PDE9A2 enzyme (BPS), fluorescence reading 480 nm/535 nm, room temperature
T1 construct: purchased BPS 60090

[1] = Dog liver microsomal stability; type: in vitro ADME; settings: dog liver microsomes 0.5 mg protein/mL, compound 1 μM, β-NADPH 1 mM, 37° C.
Description: Test samples: the compounds disclosed herein and the compound 1-8 of patent WO2017019723A1 (prepared by referring to the examples for synthesis in WO2017019723A1) having the following structural formula: […]
An appropriate amount of the compound was precisely weighed out and dissolved in DMSO to prepare a 5.0 mM stock solution. The 5.0 mM stock solution was diluted to 1.0 mM with DMSO, and then diluted with water to 10 μM compound working solution for later use (DMSO content in the reaction system: 0.1% v/v).
Vd=1/protein content in liver microsomes

human PDE9 = human PDE9 (Homo sapiens, UniProt O76083); settings: background statement; cited from earlier work
Sequence of human PDE9 (O76083 whole entry): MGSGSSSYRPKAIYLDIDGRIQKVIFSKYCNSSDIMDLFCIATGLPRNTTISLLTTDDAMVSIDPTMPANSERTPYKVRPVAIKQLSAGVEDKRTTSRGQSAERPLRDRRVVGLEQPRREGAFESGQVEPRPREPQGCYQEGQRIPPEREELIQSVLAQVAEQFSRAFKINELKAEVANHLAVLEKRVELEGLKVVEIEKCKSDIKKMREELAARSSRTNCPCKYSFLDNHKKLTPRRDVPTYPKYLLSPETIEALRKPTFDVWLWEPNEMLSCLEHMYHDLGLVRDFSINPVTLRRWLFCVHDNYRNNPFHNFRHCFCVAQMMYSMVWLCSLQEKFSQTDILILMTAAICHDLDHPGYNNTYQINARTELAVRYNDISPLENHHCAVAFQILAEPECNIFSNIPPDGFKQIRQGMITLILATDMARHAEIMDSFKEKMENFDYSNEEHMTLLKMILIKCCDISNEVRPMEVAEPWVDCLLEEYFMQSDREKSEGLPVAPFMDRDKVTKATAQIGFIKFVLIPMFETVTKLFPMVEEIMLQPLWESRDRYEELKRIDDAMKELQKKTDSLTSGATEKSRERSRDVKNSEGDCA

T1 sequence (O76083 1-533 isoform O76083-2): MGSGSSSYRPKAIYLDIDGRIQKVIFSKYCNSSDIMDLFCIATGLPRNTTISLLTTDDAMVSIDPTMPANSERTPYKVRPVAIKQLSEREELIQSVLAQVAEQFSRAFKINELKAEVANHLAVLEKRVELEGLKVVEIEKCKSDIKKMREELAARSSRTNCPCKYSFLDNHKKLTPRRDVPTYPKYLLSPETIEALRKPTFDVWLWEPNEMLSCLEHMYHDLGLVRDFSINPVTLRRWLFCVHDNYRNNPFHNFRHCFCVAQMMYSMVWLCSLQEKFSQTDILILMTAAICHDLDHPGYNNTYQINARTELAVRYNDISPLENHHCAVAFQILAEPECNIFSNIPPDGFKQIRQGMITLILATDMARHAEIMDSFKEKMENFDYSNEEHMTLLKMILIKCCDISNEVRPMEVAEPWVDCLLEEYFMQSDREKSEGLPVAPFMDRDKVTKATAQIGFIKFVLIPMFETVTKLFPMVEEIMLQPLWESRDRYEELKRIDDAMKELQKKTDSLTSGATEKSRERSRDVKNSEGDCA

| IC50 (PDE9A2 enzyme) [nM] | half-life at 1 μM [1] [h] | microsomal CLint at 1 μM [1] [µL/min/mg] | SMILES | inhibitory activity against PDE9 (human PDE9) |
| --- | --- | --- | --- | --- |
| 19 | 6.8 | 3.4 | COC1(C)CCN(c2c(C#N)c(=O)[nH]c3ccc(C)nc23)CC1 [Compound 166, 4-(4-methoxy-4-methylpiperidin-1-yl)-6-methyl-2-oxo-1,2-dihydro-1,5-naphthyridine-3-carbonitrile] | – |
| 50 | – | – | COC1(C)CCN(c2c(C#N)c(=O)[nH]c3cnc(C(C)C)cc23)CC1 [Compound 163, 6-isopropyl-4-(4-methoxy-4-methylpiperidin-1-yl)-2-oxo-1,2-dihydro-1,7-naphthyridine-3-carbonitrile] | – |
| – | 0.2 | 116 | N#Cc1c(N2CCCCCC2)c2ccccc2[nH]c1=O [Compound I-8, reference compound] | – |
| – | 14.4 | 1.6 | COC1(C)CCN(c2c(C#N)c(=O)[nH]c3cnc([C@H](C)O)cc23)CC1 (single isomer, unassigned) [Compound B, 6-(1-hydroxyethyl)-4-(4-methoxy-4-methylpiperidin-1-yl)-2-oxo-1,2-dihydro-1,7-naphthyridine-3-carbonitrile] | – |
| – | 8.25 | 2.8 | COC1(C)CCN(c2c(C#N)c(=O)[nH]c3cnc(C(C)OP(=O)([O-])[O-])cc23)CC1.[Na+].[Na+] (stereo not shown) [Compound 204] | – |
| – | – | – | COc1ccc(C2CNC(=O)C2)cc1OC1CCCC1 (stereo not shown) [rolipram] | no inhibitory activity or low inhibitory activity |
| – | – | – | CCOC(=O)C1=C[C@]2(CC)CCCN3CCc4c(n1c1ccccc41)[C@@H]32 [vinpocetine] | no inhibitory activity or low inhibitory activity |
| 70 | – | – | CC1(C)CCN(c2c(C#N)c(=O)[nH]c3ccccc23)CC1 [Compound I-11, reference compound] | – |
| 11 | 2.32 | 10 | CCc1ccc2[nH]c(=O)c(C#N)c(N3CCC(C)(OC)CC3)c2n1 [Compound 167, 6-ethyl-4-(4-methoxy-4-methylpiperidin-1-yl)-2-oxo-1,2-dihydro-1,5-naphthyridine-3-carbonitrile] | – |
| 37 | – | – | CC(O)c1cc2c(N3CCC(C)(O)CC3)c(C#N)c(=O)[nH]c2cn1 (stereo not shown) [Compound 194, 4-(4-hydroxy-4-methylpiperidin-1-yl)-6-(1-hydroxyethyl)-2-oxo-1,2-dihydro-1,7-naphthyridine-3-carbonitrile] | – |
| – | – | – | CC(C)Cn1c(=O)n(C)c(=O)c2[nH]cnc21 [IBMX] | no inhibitory activity or low inhibitory activity |
| 15 | – | – | COC1(C)CCN(c2c(C#N)c(=O)[nH]c3cnc(CO)cc23)CC1 [Compound 177, 6-(hydroxymethyl)-4-(4-methoxy-4-methylpiperidin-1-yl)-2-oxo-1,2-dihydro-1,7-naphthyridine-3-carbonitrile] | – |
| – | – | – | OCCN(CCO)c1nc(N2CCCCC2)c2nc(N(CCO)CCO)nc(N3CCCCC3)c2n1 [dipyridamole] | no inhibitory activity or low inhibitory activity |
| – | – | – | CC(=O)Nc1ccc(-c2c[nH]c(=O)cn2)cc1 [SKF94120] | no inhibitory activity or low inhibitory activity |
| 24 | – | – | COC1(C)CCN(c2c(C#N)c(=O)[nH]c3cccnc23)CC1 [Compound 165, 4-(4-methoxy-4-methylpiperidin-1-yl)-2-oxo-1,2-dihydro-1,5-naphthyridine-3-carbonitrile] | – |
